Here are results for 2 compounds from article PMC4538832, “Structures of the T. brucei kRNA editing factor MRB1590 reveal unique RNA-binding pore motif contained within an ABC-ATPase fold” (Nucleic Acids Research, 2015).

This assay concerns the target T1, MRB1590(10–668) (Trypanosoma brucei, UniProt Q57ZF2).
T1 construct: gene Tb03.30P12.70; residues 10-668 (full length 668, 72 kDa); homodimer, ATP site formed by both subunits
T1 sequence (Q57ZF2 10-668): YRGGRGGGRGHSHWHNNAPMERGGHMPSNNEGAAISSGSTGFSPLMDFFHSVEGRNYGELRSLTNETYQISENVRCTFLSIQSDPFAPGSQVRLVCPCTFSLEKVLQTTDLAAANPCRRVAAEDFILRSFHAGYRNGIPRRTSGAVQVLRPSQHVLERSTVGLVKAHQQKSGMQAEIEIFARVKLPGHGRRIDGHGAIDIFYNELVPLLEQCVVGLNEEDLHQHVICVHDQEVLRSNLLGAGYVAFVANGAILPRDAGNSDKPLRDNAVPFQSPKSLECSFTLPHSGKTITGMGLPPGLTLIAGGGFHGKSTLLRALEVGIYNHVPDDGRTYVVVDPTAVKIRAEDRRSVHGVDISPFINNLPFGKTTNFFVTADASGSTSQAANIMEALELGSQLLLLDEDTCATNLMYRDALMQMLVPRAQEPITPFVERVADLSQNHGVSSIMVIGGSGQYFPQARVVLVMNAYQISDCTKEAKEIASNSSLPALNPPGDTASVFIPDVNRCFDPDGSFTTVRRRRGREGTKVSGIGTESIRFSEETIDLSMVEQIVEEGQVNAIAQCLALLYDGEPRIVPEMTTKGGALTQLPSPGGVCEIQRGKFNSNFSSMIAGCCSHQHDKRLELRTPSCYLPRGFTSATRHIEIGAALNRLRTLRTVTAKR
Description: ITC. Format: binding.

The structures appear in SMILES notation.

For `Nc1ncnc2c1ncn2[C@@H]1O[C@H](COP(=O)(O)OP(=O)(O)O)[C@@H](O)[C@H]1O` [ADP], the Kd – broadly, the equilibrium constant for the complex coming apart – came to 885 ± 49 nM. Regarding `Nc1ncnc2c1ncn2[C@@H]1O[C@H](COP(=O)(O)OP(=O)(O)NP(=O)(O)O)[C@@H](O)[C@H]1O` [AMP-PNP], the Kd was found to be 1270 ± 210 nM.
